For 15 compounds, IC50 results are on record in patent publication US20240336601A1 (Chulalongkorn University, priority 2020, published 2024).

Experiment [1] addresses interaction between PD-1 and PD-L1 (Homo sapiens, UniProt Q9NZQ7). Nature of the experiment: PD-1/PD-L1 protein-protein interaction assay (ALPHA). It counts as binding. Particulars: 2 nM His-tagged human PD-L1, 0.6 nM PD-1-Fc, AlphaScreen.
Procedure: PD-1′PD-L1 Protein-Protein Interaction Assay
Amplified Luminescent Proximity Homogeneous Assay (ALPHA) platform was used to evaluate the ability of the compounds to block the interaction between PD-1 and PD-L1. The assays were performed in half volume white 96-well plate in a final volume of 40 μl. Compounds at various concentrations were preincubated with 2 nM His tagged recombinant human PD-L1 protein and 0.6 nM recombinant PD-1 protein with Fc-tag (both reagents were purchased from AcroBiosystems) for 40 minutes. After the preincubation, 20 μg/mL of Alphascreen Ni chelate donor beads (PerkinElmer, USA) and Protein A acceptor beads (PerkinElmer, USA) were added into the well and incubated under reduced light at 25° C. for 120 minutes. The signal was measured with the EnSight Multimode Plate Reader. IC50 values were calculated from the four-parameter logistic curve fit.
A further experiment addresses T1, PD-1/PD-L1 interaction (Homo sapiens, UniProt Q9NZQ7).
T1 construct: expressed in transfected cells
In words: PD-1/PD-L1 blockage cell-based bioassay (Jurkat NFAT luciferase / CHO-PDL1 co-culture). The settings on record: Jurkat NFAT cells co-cultured with CHO-PDL1 cells, 6 h, luminescence.

T1 sequence (Q9NZQ7 19-290): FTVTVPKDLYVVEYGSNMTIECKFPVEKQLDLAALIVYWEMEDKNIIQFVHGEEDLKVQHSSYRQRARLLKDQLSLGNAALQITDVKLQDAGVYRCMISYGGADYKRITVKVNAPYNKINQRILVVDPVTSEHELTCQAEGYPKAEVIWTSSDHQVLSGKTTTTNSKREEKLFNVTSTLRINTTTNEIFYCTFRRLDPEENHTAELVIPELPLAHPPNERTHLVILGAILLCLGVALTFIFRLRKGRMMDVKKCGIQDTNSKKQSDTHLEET
Chain of interaction between PD-1 and PD-L1 (Q9NZQ7 19-238 limits assumed): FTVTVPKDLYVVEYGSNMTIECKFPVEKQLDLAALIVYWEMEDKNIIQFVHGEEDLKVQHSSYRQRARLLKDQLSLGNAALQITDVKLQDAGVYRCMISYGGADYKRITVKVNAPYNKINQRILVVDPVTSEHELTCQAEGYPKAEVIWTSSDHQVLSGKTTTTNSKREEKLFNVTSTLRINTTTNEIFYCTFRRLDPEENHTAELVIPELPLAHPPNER

Regarding `COc1cc(-n2ncc3c(-c4cccc(-c5ccc(CN6CC(C)(C(N)=O)C6)c(OC)n5)c4Cl)cccc32)cc(OC)c1CN1CC(C)(O)C1` [Example 104, 1-((6-(2-chloro-3-(1-(4-((3-hydroxy-3-methylazetidin-1-yl)methyl)-3,5-dimethoxyphenyl)-1H-indazol-4-yl)phenyl)-2-methoxypyridin-3-yl)methyl)-3-methylazetidine-3-carboxamide], the IC50 in experiment [1] is 1 to 10 nM; at PD-1/PD-L1 interaction, 201 to 2000 nM.

On to `COc1cc(-n2ncc3c(-c4cccc(-c5ccc(CN6CC7(CNC(=O)C7)C6)c(OC)n5)c4Cl)cccc32)cc(OC)c1CNCCO` [Example 128, 2-((6-(2-chloro-3-(1-(4-(((2-hydroxyethyl)amino)methyl)-3,5-dimethoxyphenyl)-1H-indazol-4-yl)phenyl)-2-methoxypyridin-3-yl)methyl)-2,6-diazaspiro[3.4]octan-7-one], for which the values for the half-inhibitory concentration (IC50) (in experiment [1]; against PD-1/PD-L1 interaction) were below 1 nM and below 200 nM, respectively.

With `COc1cc(-n2ncc3c(-c4cccc(-c5ccc(CN6CC7(CNC(=O)C7)C6)c(OC)n5)c4Cl)cccc32)ncc1CNC[C@@H]1CCC(=O)N1` [Example 108, (S)-2-((6-(2-chloro-3-(1-(4-methoxy-5-((((5-oxopyrrolidin-2-yl)methyl)amino)methyl)pyridin-2-yl)-1H-indazol-4-yl)phenyl)-2-methoxypyridin-3-yl)methyl)-2,6-diazaspiro[3.4]octan-7-one], the IC50 is below 1 nM in experiment [1] and below 200 nM against PD-1/PD-L1 interaction.

As for `COc1cc(-n2ccc3c(-c4cccc(-c5ccc(CNC[C@@H]6CCC(=O)N6)c(OC)n5)c4Cl)cccc32)cc(OC)c1CN1CC[C@H](O)C1` [Example 83, (S)-5-((((6-(2-chloro-3-(1-(4-(((S)-3-hydroxypyrrolidin-1-yl)methyl)-3,5-dimethoxyphenyl)-1H-indol-4-yl)phenyl)-2-methoxypyridin-3-yl)methyl)amino)methyl)pyrrolidin-2-one], the 50% inhibitory concentration (IC50) lay in the range of 1 to 10 nM in experiment [1] and 201 to 2000 nM against PD-1/PD-L1 interaction.

For `COc1cc(-n2ncc3c(-c4cccc(-c5nc6cc(CN7CC[C@@H](C(=O)O)C7)cc(C#N)c6o5)c4C)cccc32)cc(OC)c1CN1CC[C@@H](O)C1` [Example 154, (R)-1-((7-cyano-2-(3-(1-(4-(((R)-3-hydroxypyrrolidin-1-yl)methyl)-3,5-dimethoxyphenyl)-1H-indazol-4-yl)-2-methylphenyl)benzo[d]oxazol-5-yl)methyl)pyrrolidine-3-carboxylic acid], the 50% inhibitory concentration (IC50) was below 1 nM in experiment [1] and below 200 nM at PD-1/PD-L1 interaction.

`COc1cc(-n2ncc3c(-c4cccc(-c5ccc(CN6CC[C@@H](C(=O)O)C6)c(OC)n5)c4Cl)cccc32)cc(OC)c1CN1CC2(CNC(=O)C2)C1` [Example 130, (R)-1-((6-(2-chloro-3-(1-(3,5-dimethoxy-4-((7-oxo-2,6-diazaspiro[3.4]octan-2-yl)methyl)phenyl)-1H-indazol-4-yl)phenyl)-2-methoxypyridin-3-yl)methyl)pyrrolidine-3-carboxylic acid]: the 50% inhibitory concentration (IC50) in experiment [1] is below 1 nM; at PD-1/PD-L1 interaction, below 200 nM.

`COc1cc(-n2ncc3c(-c4cccc(-c5ccc(CNC[C@H]6C[C@@H](O)C6)c(OC)n5)c4Cl)cccc32)cc(OC)c1CNC[C@@H]1CCC(=O)N1` [Example 55]: the half-maximal inhibitory concentration (IC50) in experiment [1] lay within 1 to 10 nM; against PD-1/PD-L1 interaction, 201 to 2000 nM.

Regarding `COc1cc(-n2ncc3c(-c4cccc(-c5ccc(CN6CC(C(C)(C)O)C6)c(OC)n5)c4C)cccc32)cc(OC)c1CN1CC(C(C)(C)O)C1` [Example 136, 2-(1-((6-(3-(1-(4-((3-(2-hydroxypropan-2-yl)azetidin-1-yl)methyl)-3,5-dimethoxyphenyl)-1H-indazol-4-yl)-2-methylphenyl)-2-methoxypyridin-3-yl)methyl)azetidin-3-yl)propan-2-ol], the values for the 50% inhibitory concentration (IC50) (in experiment [1]; against PD-1/PD-L1 interaction) were below 1 nM and 201 to 2000 nM, respectively.

Take `COc1cc(-n2ncc3c(-c4cccc(-c5ccc(CN[C@H]6C[C@@H](O)C6)c(OC)n5)c4Cl)cccc32)ncc1CN[C@H](CO)C(=O)O` [Example 120, ((6-(4-(2-chloro-3-(5-(((cis-3-hydroxycyclobutyl)amino)methyl)-6-methoxypyridin-2-yl)phenyl)-1H-indazol-1-yl)-4-methoxypyridin-3-yl)methyl)-D-serine]: the IC50 was below 1 nM in experiment [1] and 201 to 2000 nM against PD-1/PD-L1 interaction.

Consider `COc1cc(-c2cccc(-c3cccc4c3cnn4-c3cc(OC)c(CN4CC[C@@H](O)C4)c(OC)c3)c2Cl)cc(F)c1CN(C)C12CCC(C(=O)O)(CC1)CC2` [Example 164, (R)-4-(((2′-chloro-3-fluoro-β′-(1-(4-((3-hydroxypyrrolidin-1-yl)methyl)-3,5-dimethoxyphenyl)-1H-indazol-4-yl)-5-methoxy-[1,1′-biphenyl]-4-yl)methyl)(methyl)amino)bicyclo[2.2.2]octane-1-carboxylic acid], for which the 50% inhibitory concentration (IC50) in experiment [1] is below 1 nM; against PD-1/PD-L1 interaction, below 200 nM.

With `COc1cc(-n2ncc3c(-c4cccc(-c5ccc(C6=NCCN6)c(OC)n5)c4Cl)cccc32)cc(OC)c1CN1CC2(CNC(=O)C2)C1` [Example 76, 2-(4-(4-(2-chloro-3-(5-(4,5-dihydro-1H-imidazol-2-yl)-6-methoxypyridin-2-yl)phenyl)-1H-indazol-1-yl)-2,6-dimethoxybenzyl)-2,6-diazaspiro[3.4]octan-7-one], the IC50 in experiment [1] is below 1 nM; against PD-1/PD-L1 interaction, below 200 nM.

Regarding `COc1cc(-n2ccc3c(-c4cccc(-c5ccc(CN6CC7(CNC(=O)C7)C6)c(OC)n5)c4Cl)cccc32)cc(OC)c1CNC[C@@H]1CCC(=O)N1` [Example 96, (S)-2-((6-(2-chloro-3-(1-(3,5-dimethoxy-4-((((5-oxopyrrolidin-2-yl)methyl)amino)methyl)phenyl)-1H-indol-4-yl)phenyl)-2-methoxypyridin-3-yl)methyl)-2,6-diazaspiro[3.4]octan-7-one], the IC50 in experiment [1] was 1 to 10 nM; against PD-1/PD-L1 interaction it was 201 to 2000 nM.

On to `CCOC(=O)[C@@H](NCc1c(OC)cc(-n2ncc3c(-c4cccc(-c5ccc(CNC[C@@H]6CCC(=O)N6)c(OC)n5)c4Cl)cccc32)cc1OC)[C@@H](C)O` [Example 146, (2S,3R)-ethyl 2-((4-(4-(2-chloro-3-(6-methoxy-5-(((((S)-5-oxopyrrolidin-2-yl)methyl)amino)methyl)pyridin-2-yl)phenyl)-1H-indazol-1-yl)-2,6-dimethoxybenzyl)amino)-3-hydroxybutanoate], for which the IC50 in experiment [1] is below 1 nM; on PD-1/PD-L1 interaction, 201 to 2000 nM.

Regarding `COc1cc(-n2ncc3c(-c4cccc(-c5ccc(CN6CC(C(C)(C)O)C6)c(OC)n5)c4Cl)cccc32)cc(OC)c1CN1CC2(CCC(=O)N2)C1` [Example 140, 2-(4-(4-(2-chloro-3-(5-((3-(2-hydroxypropan-2-yl)azetidin-1-yl)methyl)-6-methoxypyridin-2-yl)phenyl)-1H-indazol-1-yl)-2,6-dimethoxybenzyl)-2,5-diazaspiro[3.4]octan-6-one], the concentration for half-maximal inhibition (IC50) fell in the range of 1 to 10 nM in experiment [1] and 201 to 2000 nM on PD-1/PD-L1 interaction.

For `COC(=O)[C@@H](CO)NCc1c(OC)cc(-n2ncc3c(-c4cccc(-c5ccc(CNC[C@@H]6CCC(=O)N6)c(OC)n5)c4Cl)cccc32)cc1OC` [Example 134, methyl (4-(4-(2-chloro-3-(6-methoxy-5-(((((S)-5-oxopyrrolidin-2-yl)methyl)amino)methyl)pyridin-2-yl)phenyl)-1H-indazol-1-yl)-2,6-dimethoxybenzyl)-D-serinate], the concentration for half-maximal inhibition (IC50) in experiment [1] was below 1 nM; at PD-1/PD-L1 interaction, below 200 nM.
